Data reported in publication PMC9481151, “Discovery of new symmetrical and asymmetrical nitrile-containing 1,4-dihydropyridine derivatives as dual kinases and P-glycoprotein inhibitors: synthesis, in vitro assays, and in silico studies” (Journal of Enzyme Inhibition and Medicinal Chemistry, 2022).

Tests used:
CCRF-CEM = test: NCI single dose (10 µM) SRB screen; format: cell-based, human; conditions: leukaemia, 48 h
HL-60(TB) = test: NCI single dose (10 µM) SRB screen; format: cell-based, human; conditions: leukaemia, 48 h
K-562 = test: NCI single dose (10 µM) SRB screen; format: cell-based, human; conditions: leukaemia, 48 h
MOLT-4 = test: NCI single dose (10 µM) SRB screen; format: cell-based, human; conditions: leukaemia, 48 h
RPMI-8226 = test: NCI single dose (10 µM) SRB screen; format: cell-based, human; conditions: leukaemia, 48 h
A549/ATCC = test: NCI single dose (10 µM) SRB screen; format: cell-based, human; conditions: non-small cell lung cancer, 48 h
EKVX = test: NCI single dose (10 µM) SRB screen; format: cell-based, human; conditions: non-small cell lung cancer, 48 h
HOP-92 = test: NCI single dose (10 µM) SRB screen; format: cell-based, human; conditions: non-small cell lung cancer, 48 h
NCI-H23 = test: NCI single dose (10 µM) SRB screen; format: cell-based, human; conditions: non-small cell lung cancer, 48 h
NCI-H322M = test: NCI single dose (10 µM) SRB screen; format: cell-based; conditions: non-small cell lung cancer, 48 h
NCI-H460 = test: NCI single dose (10 µM) SRB screen; format: cell-based, human; conditions: non-small cell lung cancer, 48 h
COLO 205 = test: NCI single dose (10 µM) SRB screen; format: cell-based, human; conditions: colon cancer, 48 h
HCC-2998 = test: NCI single dose (10 µM) SRB screen; format: cell-based, human; conditions: colon cancer, 48 h
HCT-116 = test: NCI single dose (10 µM) SRB screen; format: cell-based, human; conditions: colon cancer, 48 h
HCT-15 = test: NCI single dose (10 µM) SRB screen; format: cell-based, human; conditions: colon cancer, 48 h
HT29 = test: NCI single dose (10 µM) SRB screen; format: cell-based, human; conditions: colon cancer, 48 h
SF-268 = test: NCI single dose (10 µM) SRB screen; format: cell-based, human; conditions: CNS cancer, 48 h
SF-295 = test: NCI single dose (10 µM) SRB screen; format: cell-based, human; conditions: CNS cancer, 48 h
SF-539 = test: NCI single dose (10 µM) SRB screen; format: cell-based, human; conditions: CNS cancer, 48 h
SNB-19 = test: NCI single dose (10 µM) SRB screen; format: cell-based, human; conditions: CNS cancer, 48 h
SNB-75 = test: NCI single dose (10 µM) SRB screen; format: cell-based, human; conditions: CNS cancer, 48 h
U251 = test: NCI single dose (10 µM) SRB screen; format: cell-based, human; conditions: CNS cancer, 48 h
LOX IMVI = test: NCI single dose (10 µM) SRB screen; format: cell-based, human; conditions: melanoma, 48 h
MALME-3M = test: NCI single dose (10 µM) SRB screen; format: cell-based, human; conditions: melanoma, 48 h
M14 = test: NCI single dose (10 µM) SRB screen; format: cell-based, human; conditions: melanoma, 48 h
MDA-MB-435 = test: NCI single dose (10 µM) SRB screen; format: cell-based, human; conditions: melanoma, 48 h
SK-MEL-2 = test: NCI single dose (10 µM) SRB screen; format: cell-based, human; conditions: melanoma, 48 h
UACC-257 = test: NCI single dose (10 µM) SRB screen; format: cell-based, human; conditions: melanoma, 48 h
IGROV1 = test: NCI single dose (10 µM) SRB screen; format: cell-based, human; conditions: ovarian cancer, 48 h
OVCAR-3 = test: NCI single dose (10 µM) SRB screen; format: cell-based, human; conditions: ovarian cancer, 48 h
OVCAR-4 = test: NCI single dose (10 µM) SRB screen; format: cell-based, human; conditions: ovarian cancer, 48 h
OVCAR-5 = test: NCI single dose (10 µM) SRB screen; format: cell-based, human; conditions: ovarian cancer, 48 h
OVCAR-8 = test: NCI single dose (10 µM) SRB screen; format: cell-based, human; conditions: ovarian cancer, 48 h
NCI/ADR-RES = test: NCI single dose (10 µM) SRB screen; format: cell-based, human; conditions: ovarian cancer, 48 h
SK-OV-3 = test: NCI single dose (10 µM) SRB screen; format: cell-based, human; conditions: ovarian cancer, 48 h
786-0 = test: NCI single dose (10 µM) SRB screen; format: cell-based, human; conditions: renal cancer, 48 h
A498 = test: NCI single dose (10 µM) SRB screen; format: cell-based, human; conditions: renal cancer, 48 h
ACHN = test: NCI single dose (10 µM) SRB screen; format: cell-based, human; conditions: renal cancer, 48 h
CAKI-1 = test: NCI single dose (10 µM) SRB screen; format: cell-based, human; conditions: renal cancer, 48 h
RXF 393 = test: NCI single dose (10 µM) SRB screen; format: cell-based, human; conditions: renal cancer, 48 h
SN12C = test: NCI single dose (10 µM) SRB screen; format: cell-based, human; conditions: renal cancer, 48 h
TK-10 = test: NCI single dose (10 µM) SRB screen; format: cell-based, human; conditions: renal cancer, 48 h
UO-31 = test: NCI single dose (10 µM) SRB screen; format: cell-based, human; conditions: renal cancer, 48 h
PC-3 = test: NCI single dose (10 µM) SRB screen; format: cell-based, human; conditions: prostate cancer, 48 h
MDA-MB-231 = test: NCI single dose (10 µM) SRB screen; format: cell-based, human; conditions: breast cancer, 48 h
HS578T = test: NCI single dose (10 µM) SRB screen; format: cell-based, human; conditions: breast cancer, 48 h
BT-549 = test: NCI single dose (10 µM) SRB screen; format: cell-based, human; conditions: breast cancer, 48 h
T-47D = test: NCI single dose (10 µM) SRB screen; format: cell-based, human; conditions: breast cancer, 48 h
MDA-MB-468 = test: NCI single dose (10 µM) SRB screen; format: cell-based, human; conditions: breast cancer, 48 h
NCI 60 cancer cell lines = test: NCI single dose (10 µM) SRB screen, mean over panel; format: cell-based, human; conditions: mean over 60 cell lines, 48 h
Staphylococcus aureus = test: Agar well diffusion method
Candida albicans = test: Agar well diffusion method
Aspergillus flavus = test: Agar well diffusion method

COCCOC(=O)C1=C(C)NC(C)=C(C(=O)OC)C1c1cccc(C#N)c1 (racemic) [Compound 2d, (±)-3-(2-Methoxyethyl) 5-methyl 4-(3-cyanophenyl)-2,6-dimethyl-1,4-dihydropyridine-3,5-dicarboxylate]
GI% CCRF-CEM (CCRF-CEM): – (Only GI% ≥ 10 are shown)
GI% HL-60(TB) (HL-60(TB)): – (Only GI% ≥ 10 are shown)
GI% K-562 (K-562): – (Only GI% ≥ 10 are shown)
GI% MOLT-4 (MOLT-4): – (Only GI% ≥ 10 are shown)
GI% RPMI-8226 (RPMI-8226): – (Only GI% ≥ 10 are shown)
GI% A549/ATCC (A549/ATCC): – (Only GI% ≥ 10 are shown)
GI% EKVX (EKVX): – (Only GI% ≥ 10 are shown)
GI% HOP-92 (HOP-92): – (Only GI% ≥ 10 are shown)
GI% NCI-H23 (NCI-H23): – (Only GI% ≥ 10 are shown)
GI% NCI-H322M (NCI-H322M): – (Only GI% ≥ 10 are shown)
GI% NCI-H460 (NCI-H460): – (Only GI% ≥ 10 are shown)
GI% COLO 205 (COLO 205): – (Only GI% ≥ 10 are shown)
GI% HCC-2998 (HCC-2998): – (Only GI% ≥ 10 are shown)
GI% HCT-116 (HCT-116): – (Only GI% ≥ 10 are shown)
GI% HCT-15 (HCT-15): – (Only GI% ≥ 10 are shown)
GI% HT29 (HT29): – (Only GI% ≥ 10 are shown)
GI% SF-268 (SF-268): – (Only GI% ≥ 10 are shown)
GI% SF-295 (SF-295): – (Only GI% ≥ 10 are shown)
GI% SF-539 (SF-539): – (Only GI% ≥ 10 are shown)
GI% SNB-19 (SNB-19): – (Only GI% ≥ 10 are shown)
GI% SNB-75 (SNB-75): 15%
GI% U251 (U251): – (Only GI% ≥ 10 are shown)
GI% LOX IMVI (LOX IMVI): – (Only GI% ≥ 10 are shown)
GI% MALME-3M (MALME-3M): – (Only GI% ≥ 10 are shown)
GI% M14 (M14): – (Only GI% ≥ 10 are shown)
GI% MDA-MB-435 (MDA-MB-435): – (Only GI% ≥ 10 are shown)
GI% SK-MEL-2 (SK-MEL-2): – (Only GI% ≥ 10 are shown)
GI% UACC-257 (UACC-257): – (Only GI% ≥ 10 are shown)
GI% IGROV1 (IGROV1): – (Only GI% ≥ 10 are shown)
GI% OVCAR-3 (OVCAR-3): – (Only GI% ≥ 10 are shown)
GI% OVCAR-4 (OVCAR-4): – (Only GI% ≥ 10 are shown)
GI% OVCAR-5 (OVCAR-5): – (Only GI% ≥ 10 are shown)
GI% OVCAR-8 (OVCAR-8): – (Only GI% ≥ 10 are shown)
GI% NCI/ADR-RES (NCI/ADR-RES): – (Only GI% ≥ 10 are shown)
GI% SK-OV-3 (SK-OV-3): – (Only GI% ≥ 10 are shown)
GI% 786-0 (786-0): – (Only GI% ≥ 10 are shown)
GI% A498 (A498): 12%
GI% ACHN (ACHN): – (Only GI% ≥ 10 are shown)
GI% CAKI-1 (CAKI-1): – (Only GI% ≥ 10 are shown)
GI% RXF 393 (RXF 393): – (Only GI% ≥ 10 are shown)
GI% SN12C (SN12C): – (Only GI% ≥ 10 are shown)
GI% TK-10 (TK-10): – (Only GI% ≥ 10 are shown)
GI% UO-31 (UO-31): – (Only GI% ≥ 10 are shown)
GI% PC-3 (PC-3): – (Only GI% ≥ 10 are shown)
GI% MDA-MB-231 (MDA-MB-231): – (Only GI% ≥ 10 are shown)
GI% HS578T (HS578T): – (Only GI% ≥ 10 are shown)
GI% BT-549 (BT-549): – (Only GI% ≥ 10 are shown)
GI% T-47D (T-47D): – (Only GI% ≥ 10 are shown)
GI% MDA-MB-468 (MDA-MB-468): – (Only GI% ≥ 10 are shown)
Mean GI% (NCI 60 cancer cell lines): −2%
zone of inhibition at 1000 µg/mL (Staphylococcus aureus; Staphylococcus aureus, 24 h, read-out: Diameter of inhibition zone, S. aureus): 15 mm
% activity index, S. aureus (Staphylococcus aureus; relative to ciprofloxacin): 62.5%
zone of inhibition at 1000 µg/mL (Candida albicans; Candida albicans, 24 h, read-out: Diameter of inhibition zone, C. albicans): 12 mm
% activity index, C. albicans (Candida albicans; relative to clotrimazole): 44.4%
zone of inhibition at 1000 µg/mL (Aspergillus flavus; Aspergillus flavus, 24 h, read-out: Diameter of inhibition zone, A. flavus): 15 mm
% activity index, A. flavus (Aspergillus flavus; relative to clotrimazole): 60%
